Like-named read-outs stand apart in the source and are kept apart here.
Assays:
BVMOAf1 (PTDH-BVMOAf1) [1] = molecular target: T1, BVMOAf1 (PTDH-BVMOAf1) (Aspergillus fumigatus, UniProt Q4WAZ0); assay: UV-Vis absorption of purified holo flavoprotein, FAD release by SDS; format: binding; conditions: FAD 100 μM in lysis buffer; Tris/HCl pH 8.0
T1 construct: gene psoF; Truncated N-terminal BVMO domain (1614 bp, 367 C-terminal residues of the 905 deleted); pCRE2 vector, E. coli TOP10; fusion kept; natural Gln in place of His in the BVMO motif (H173Q)
T1 sequence (Q4WAZ0 1-538): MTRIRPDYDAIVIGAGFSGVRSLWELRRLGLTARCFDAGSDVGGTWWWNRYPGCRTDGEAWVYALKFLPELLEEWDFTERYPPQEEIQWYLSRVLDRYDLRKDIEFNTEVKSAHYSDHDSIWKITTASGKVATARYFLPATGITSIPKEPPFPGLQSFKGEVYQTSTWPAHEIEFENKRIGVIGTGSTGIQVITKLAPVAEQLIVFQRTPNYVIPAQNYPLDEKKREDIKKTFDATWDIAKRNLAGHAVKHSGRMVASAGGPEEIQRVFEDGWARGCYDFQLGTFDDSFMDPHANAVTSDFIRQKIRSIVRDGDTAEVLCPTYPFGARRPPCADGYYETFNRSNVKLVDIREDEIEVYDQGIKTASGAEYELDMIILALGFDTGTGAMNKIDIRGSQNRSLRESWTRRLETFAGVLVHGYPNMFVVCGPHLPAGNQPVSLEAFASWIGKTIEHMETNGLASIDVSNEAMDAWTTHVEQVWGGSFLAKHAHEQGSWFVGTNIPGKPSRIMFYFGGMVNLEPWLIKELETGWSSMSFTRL

BVMOAf1 (PTDH-BVMOAf1) [2] = molecular target: T1, BVMOAf1 (PTDH-BVMOAf1); assay: NADPH consumption at […] nm; format: biochemical; conditions: air-saturated 50 mM Tris/HCl pH 8.0, 25°C
CCSCc1ccccc1 = assay: purified protein; format: biochemical, Aspergillus fumigatus; conditions: 100 μM NADPH, air-saturated 50 mM Tris/HCl pH 8.0, 25°C
[3] = 100 μM NADPH, read-out: K M (μ M )

**Q.** For `Cc1cc2nc3c(=O)[nH]c(=O)nc-3n(C[C@H](O)[C@H](O)[C@H](O)COP(=O)(O)OP(=O)(O)OC[C@H]3O[C@@H](n4cnc5c(N)ncnc54)[C@H](O)[C@@H]3O)c2cc1C` [FAD], which “UV-Vis absorption of purified holo flavoprotein, FAD release by SDS” value (BVMOAf1 (PTDH-BVMOAf1) [1]) is on record?
**A.** Its value is “yellow fractions containing FAD-bound protein”.

**Q.** With `NC(=O)C1=CN([C@@H]2O[C@H](COP(=O)(O)OP(=O)(O)OC[C@H]3O[C@@H](n4cnc5c(N)ncnc54)[C@H](OP(=O)(O)O)[C@@H]3O)[C@@H](O)[C@H]2O)C=CC1` [[drawing 5]] as the compound, how does the Km (BVMOAf1 (PTDH-BVMOAf1) [2]; [3]) read?
**A.** Its Km is 179.8 ± 0.1 µM.

**Q.** `NC(=O)C1=CN([C@@H]2O[C@H](COP(=O)(O)OP(=O)(O)OC[C@H]3O[C@@H](n4cnc5c(N)ncnc54)[C@H](OP(=O)(O)O)[C@@H]3O)[C@@H](O)[C@H]2O)C=CC1` [NADPH] was tested. Which Km (BVMOAf1 (PTDH-BVMOAf1) [2]; rac-bicyclo[3.2.0]hept-2-en-6-one 2.0 mM (typical mixture)) did it give?
**A.** The Km was less than 5 µM.

**Q.** For “BVMOAf1 (PTDH-BVMOAf1) (Aspergillus fumigatus Af293)”, which Km (CCSCc1ccccc1) is on record?
**A.** The Km was 23.5 ± 0.1 µM.

**Q.** What about the kcat (CCSCc1ccccc1) of the same compound?
**A.** The kcat was 0.47 ± 0.04 s⁻¹.

**Q.** What about the kcat/Km (CCSCc1ccccc1) of the same compound?
**A.** The kcat/Km was 20000 M⁻¹ s⁻¹.

**Q.** Which Km (BVMOAf1 (PTDH-BVMOAf1) [2]; [3]) does the source give for `NC(=O)C1=CN([C@@H]2O[C@H](COP(=O)(O)OP(=O)(O)OC[C@H]3O[C@@H](n4cnc5c(N)ncnc54)[C@H](O)[C@@H]3O)[C@@H](O)[C@H]2O)C=CC1` here?
**A.** Its Km is 118.8 ± 0.1 µM.

From article PMC3762062, “Cloning, overexpression and biocatalytic exploration of a novel Baeyer-Villiger monooxygenase from Aspergillus fumigatus Af293” (AMB Express, 2013)
